Earlier results, collected in patent US4127523A, “Novel undecapeptides, intermediates therefor, and compositions and methods employing said undecapeptides” (priority 1977, dated 1978).

Legend:
[1] = injected directly into the brain of the rat; Belluzzi et al.
[2] = tested on: partially purified brain opiate receptor sites; conditions: literature, Bradbury et al.
[3] = literature

In the case of “H-Tyr-Gly-Gly-Phe-Met-OH [methionine enkephalin]”, the analgesic activity [1] is given as “only weak analgesic agent of short duration”, the “binding to partially purified brain opiate receptor sites” value [2] is given as “binds stereo-specifically” and the “activity in bioassays for opiate activity” value [3] is given as “very active”.
